Each block holds one compound with its values, some of them ahead of it.
Experiments:
[1] = tested on: human LDL-receptor promoter; test: LDL-receptor promoter luciferase reporter assay in transfected HepG2 cells; type: cell-based
Text: The human LDL-receptor promoter named p-588 corresponding to nucleotide −588 to +91 relative to the major transcription site was cloned by PCR from human genomic DNA (Clonetech) using SEQ ID NO: 3 […] and SEQ ID NO: 4 […] primers. and inserted into pGL3-basic vector (Promega) at Hind-III and Nco-I sites. The sequencing was identical to published promoter (Genbank L29401). Shorter promoters were obtained by PCR sub-cloning using Kpn-I and Nar-I sites. The primer SEQ ID NO: 5 […] corresponding to luciferase coding sequence was used as reverse primer for all constructs. The following primers were used to produce respectively p-149, p-118, p-70, p-53 and p-31 promoters: SEQ ID NO: 6 […], SEQ ID NO: 7 […], SEQ ID NO: 8 […], SEQ ID NO: 9 […] and SEQ ID NO: 10 […]. A vector containing the 38 bp of the minimal promoter of adenovirus Major Late Promoter (Ham. J. et al., EMBO, 10: 2931-2940 (1991)) was produced using Bgl-II and Hind-III site in pGL3-basic. Four repeats of the SRE sequence present on the human LDL-receptor promoter were introduced in p-MLP vector using Bgl-II site, SEQ ID NO: 11 […] and complementary oligo. HepG2 cells seeded the previous day at 3 10^5 cells per well of 24 well plate were transfected with 1 μg of LDL-promoter containing vector together with p-RL-TK control vector (Promega) using Fugene 6 (Boehringer). HepG2 cells were incubated for 28 hours in the presence of SCAP antagonist and/or 25OH-cholesterol. Firefly luciferase and Renila activity were measured using Dual Luciferase Assay Kit (Promega) and Lumistar (BMG). The ratio of Firefly luciferase to Renila were used to calculate mean and S.D. of tetraplicates.
A vector containing the human LDL-receptor promoter coupled to Firefly luciferase reporter was made. A mixture of the LDL-receptor vector and control pRL-TK vector was used to transfect HepG2 cells. Cells were incubated with 25OH-cholesterol (0.2 or 1 μM) alone or in the presence (black bars) or absence (gray bars) of Example 1 (1 μM) for 28 hours before measurement of luciferase and renila activity. The ratio of luciferase activity versus renila activity was calculated and the mean and SD of triplicates were expressed as percent of control.
Shortening the LDL-receptor promoter in the same reporter vector modifies the relative luciferase activity (FIG. 3A).

HepG2 cells = test: Uptake of Dil-LDL by HepG2 cells; type: cell-based; settings: 10 μM, 24 hours, Dil-LDL 6 μg/ml for last 4 hours, FIG. 5
Description: To determine if activation of LDL-receptor promoter also translated into an increase in functional LDL receptors, an LDL uptake assay was set up. HepG2 cells seeded at 8 10^4 cells per 8 well Biocoat slides (Beckton Dickinson) were treated with SCAP antagonist or 25OH-cholesterol for 20h and then incubated with 6 μg/ml of fluorescent Dil-LDL for 4 hours. The amount of fluorescent dye that accumulated in the lysosomes was quantified by fluorescence microscopy using Axioplan-2 Zeiss microscope equipped with DXC950P video camera (Sony) and red fluorescence filters.
HepG2 cells were treated for 24 hours in the presence of 0.5 μM Example 1 or 10 μM 25OH-cholesterol. Dil-LDL (6 μg/ml) were added 4 hours before the end of the incubation. Cells were washed and observed by fluorescence microscopy using rhodamine filters and video camera with fixed settings.

full length hamster SCAP = target: T1, full length hamster SCAP (Cricetulus griseus, UniProt P97260); test: Photo-affinity labelling / competition binding on full length SCAP in infected Sf-9 cells
T1 construct: recombinant baculovirus encoding for full length hamster SCAP containing a T7 tag; expressed in transfected cells; host or cells: Sf-9 insect cells infected with recombinant baculovirus (pTen12 transfer vector)
T1 sequence (P97260 1-1276): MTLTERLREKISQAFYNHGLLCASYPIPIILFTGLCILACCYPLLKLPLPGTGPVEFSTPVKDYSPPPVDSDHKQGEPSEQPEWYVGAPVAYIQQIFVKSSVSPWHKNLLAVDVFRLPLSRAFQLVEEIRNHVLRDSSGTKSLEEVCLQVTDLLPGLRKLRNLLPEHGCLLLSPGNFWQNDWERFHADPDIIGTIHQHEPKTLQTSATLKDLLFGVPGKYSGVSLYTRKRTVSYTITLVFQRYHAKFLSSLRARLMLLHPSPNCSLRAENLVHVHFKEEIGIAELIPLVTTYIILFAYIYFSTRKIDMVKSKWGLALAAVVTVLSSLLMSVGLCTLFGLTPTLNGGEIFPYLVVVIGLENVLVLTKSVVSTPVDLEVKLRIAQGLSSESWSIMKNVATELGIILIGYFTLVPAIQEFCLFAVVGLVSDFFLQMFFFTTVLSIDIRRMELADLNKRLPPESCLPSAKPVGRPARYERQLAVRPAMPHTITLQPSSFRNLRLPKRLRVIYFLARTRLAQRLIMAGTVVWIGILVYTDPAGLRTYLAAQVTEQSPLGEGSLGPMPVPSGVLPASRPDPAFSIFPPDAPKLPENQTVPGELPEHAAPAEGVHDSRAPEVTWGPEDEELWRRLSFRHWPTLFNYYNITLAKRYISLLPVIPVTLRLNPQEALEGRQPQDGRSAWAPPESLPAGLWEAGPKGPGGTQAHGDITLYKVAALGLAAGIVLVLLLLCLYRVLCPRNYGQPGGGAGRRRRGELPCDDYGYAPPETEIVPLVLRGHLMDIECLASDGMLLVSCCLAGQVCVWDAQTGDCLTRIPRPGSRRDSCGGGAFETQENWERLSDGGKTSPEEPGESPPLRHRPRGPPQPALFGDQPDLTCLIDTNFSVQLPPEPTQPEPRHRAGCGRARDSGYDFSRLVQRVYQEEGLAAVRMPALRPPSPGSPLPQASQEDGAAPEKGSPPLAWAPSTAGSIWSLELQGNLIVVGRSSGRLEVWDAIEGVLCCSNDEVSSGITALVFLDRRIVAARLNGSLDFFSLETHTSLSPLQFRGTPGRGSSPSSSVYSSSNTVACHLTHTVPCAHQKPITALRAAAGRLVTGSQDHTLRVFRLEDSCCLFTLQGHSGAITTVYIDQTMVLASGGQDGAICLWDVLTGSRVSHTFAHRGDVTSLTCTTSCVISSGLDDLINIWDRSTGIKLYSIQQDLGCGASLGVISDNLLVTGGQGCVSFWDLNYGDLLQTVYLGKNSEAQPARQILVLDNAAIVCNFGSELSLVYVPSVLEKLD
Description: Hamster SCAP cDNA was cut from pTK-HSV-SCAP-T7 using BgIII and Xbal and re-cloned in pTen 12 transfer vector. Recombinant baculovirus clones were produced by Quantum Biotechnologies Inc. and screened by western blots using T7-tag antibodies on Sf-9 infected cells. Sf-9 cells were grown in CCM-3 medium at 28° C. and seeded at 8×10^6 cells per 75 cm^2 flask. Four hours later they were infected with 200×10^6 pfu of baculovirus and incubated 3 days before harvest. […]
(§1) Infected Sf-9 cells were harvested, washed in Dulbecco phosphate buffered saline and 2×10^5 cells were incubated with test compounds and the control (^14C radio-labeled Example 2 ) for 30 min at 28° C. in 24 well plates. […] The radioactivity was detected using a Phosporlmager screen (Molecular Dynamics).
Sf-9 insect cells were infected with recombinant baculovirus encoding for full length hamster SCAP containing a T7 tag (FIG. 1A). Total protein (10 μg) from control cells (lanes b, d) or infected cells (lanes a, c) were analyzed by SDS-PAGE and either stained using Coomassie blue (lanes a, b) or blotted on nitrocellulose membrane following immuno-detection with T7 tag monoclonal antibody (lanes c, d). […] The gel was dried and radioactivity detected using Phosphor Imager Screen.

[2] = target: T2, truncated form of SCAP corresponding to amino acid 2 to 473 (Cricetulus griseus, UniProt P97260); test: Photo-affinity labelling / competition binding on truncated SCAP (amino acid 2 to 473) in Sf-9 cell membranes; parameters: species or system hamster
T2 construct: a truncated form of SCAP corresponding to amino acid 2 to 473; expressed in transfected cells; host or cells: Sf-9 insect cells infected with recombinant baculovirus (Gateway pDest10 bacmid); membranes analysed
T2 sequence (P97260 2-473): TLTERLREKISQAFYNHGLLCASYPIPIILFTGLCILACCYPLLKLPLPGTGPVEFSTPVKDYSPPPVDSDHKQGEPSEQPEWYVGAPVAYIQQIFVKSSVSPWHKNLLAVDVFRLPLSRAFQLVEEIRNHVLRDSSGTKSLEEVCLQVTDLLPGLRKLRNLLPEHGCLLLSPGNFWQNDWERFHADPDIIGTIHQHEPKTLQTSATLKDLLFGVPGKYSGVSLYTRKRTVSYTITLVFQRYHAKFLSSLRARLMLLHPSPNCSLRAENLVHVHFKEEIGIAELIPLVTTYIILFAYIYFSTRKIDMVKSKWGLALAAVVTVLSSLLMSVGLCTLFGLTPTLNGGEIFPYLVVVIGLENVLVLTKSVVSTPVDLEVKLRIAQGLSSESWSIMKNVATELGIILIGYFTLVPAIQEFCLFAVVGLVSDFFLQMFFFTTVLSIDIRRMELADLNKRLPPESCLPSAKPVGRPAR
Description: Hamster SCAP cDNA was cut from pTK-HSV-SCAP-T7 using BgIII and Xbal and re-cloned in pTen 12 transfer vector. Recombinant baculovirus clones were produced by Quantum Biotechnologies Inc. and screened by western blots using T7-tag antibodies on Sf-9 infected cells. Sf-9 cells were grown in CCM-3 medium at 28° C. and seeded at 8×10^6 cells per 75 cm^2 flask. Four hours later they were infected with 200×10^6 pfu of baculovirus and incubated 3 days before harvest. Truncated SCAP corresponding to amino acid 2 to 473 was produced by PCR amplification with Platinium Pfx polymerase using pTK-HSV-SCAP-T7 as template and primers containing attB1 sequence followed by SEQ ID NO: 1 […] and the complement strand of attB2 sequence followed by SEQ ID NO: 2 […]. After recombination into pDonR201 vector using the Gateway cloning system, the inserts were recloned into pDest10 vector using LR recombinase. The corresponding bacmids and recombinant baculovirus were produced according the manufacturer instructions.
A competition binding assay using recombinant SCAP protein was developed in Sf-9 insect cells. […]
as §1, with “Dynamics). […]” for “Dynamics).”

SMILES: C[C@H](CCCC(C)(C)O)[C@H]1CC[C@H]2[C@@H]3CC=C4C[C@@H](O)CC[C@]4(C)[C@H]3CC[C@]12C [25OH-cholesterol, reference compound]
LDL-receptor promoter activity (luciferase/renila ratio) ([1]; 0.2 or 1 μM, 28 hours, HepG2, FIG. 2): represses LDL-receptor promoter activity | repression of shortened LDL-receptor promoter constructs ([1]; HepG2, FIG. 3B right): two sequences are involved: SRE and FP-1 | LDL uptake (Dil-LDL fluorescence) (HepG2 cells): reduced it

photo-affinity labelling of SCAP by the radio-labelled compound (full length hamster SCAP; 5 μM 14C-Example 2, 30 min at 28° C., 365 nm UV 10 min, FIG. 1A): specifically labeled SCAP | photo-affinity labelling of truncated SCAP by the radio-labelled compound ([2]; 5 μM 14C-Example 2, membranes, FIG. 1B): can be labelled
SMILES: COc1cc(C(C)C)ccc1C1CCN(CCCCNC(=O)c2ccc(C(=O)c3ccccc3)cc2)CC1.Cl [Example 2, 4-(4-Benzoyl)-N-{4-[4-(4-isopropyl-2-methoxy-phenyl)-piperidin-1-yl]-butyl}-benzamide Hydrochloride]

SMILES: CCOC1=CC2=C(CN(C)C)C[C@@H]3[C@H](C(O)C[C@@]4(C)[C@H]3CC[C@@]43OCOC34COCO4)[C@@]2(C)CC1 (stereo partly drawn) [Example 3, 3-Ethoxy-11-hydroxy-androst-3,5-diene-17α,17β-(1,3,6,8-tetraoxaspiro[4.4]nonan-4-yl)-6-methyldimethylamine]
displacement of the 14C-Example 2 labelling of SCAP (full length hamster SCAP; 100, 50, 20 μM test compound versus 5 μM 14C-Example 2, FIG. 1A): displaced in a dose dependant manner | competition with 14C-Example 2 labelling of truncated SCAP ([2]; 200 μM or 100 μM test compound versus 5 μM 14C-Example 2, FIG. 1B): competitive

— patent US6673555B1, “Methods of using SCAP antagonists” (SmithKline Beecham Corporation, priority 1999, dated 2004)
